In data set [1] the target is PCP site of the NMDA receptor (cortical). Kind of data set: [3H]-MK-801 binding, PCP site of NMDA receptor, rat cortical membranes. To be noted: rat cortex membranes, [3H]-MK-801 5 nM, 10 μM glutamate, 10 μM glycine. The text has this:
(§1) The NMDA receptor contains several distinct binding domains that can regulate opening of the cationic channel. The phencyclidine (PCP) site of the NMDA receptor can be radiolabeled with [^3H]-(+)-5-methyl-10,11-dihydro-5H-dibenzo[a,d]cyclohepten-5,10-imine hydrogen maleate, [^3H-MK-801]. The following describes the procedure for determining the affinity of compounds for the PCP site in rat cortical or cerebellar membranes.
(§2) Frozen rat cortex or cerebellum, homogenized in 10 volumes of ice cold 0.32 M. sucrose is centrifuged at 1,000 g for 12 min and the supernatant stored on ice whilst the pellet was resuspended, rehomogenized and recentrifuged twice more. The three final supernatants were pooled and centrifuged at 30,000 g for 40 min at 4° C. to yield P2 pellets. These were resuspended in ice-cold distilled water, and centrifuged at 30,000 g for 50 min at 4° C. Following three further washes in distilled water, the P2 pellets were stored at −20° C. for at least 18 h. On the day of the assay, membrane pellets were thawed at room temperature, resuspended in ice-cold distilled water and centrifuged at 30,000 g for 20 min. The pellets were resuspended in 50 mM tris-HCl (pH:7.4) and recentrifuged twice more before being resuspended in tris-HCl for immediate use in the assay. Binding assays were performed at equilibrium in a total volume of 200 μl, containing, [^3H]-MK-801 (5 nM final conc.), 10 μM glutamate, 10 μM glycine, 160 μl of membrane preparation and additional drugs where appropriate. Non-specific binding was determined using MK-801 (10 μM). The assay was incubated for 120 min at room temperature. The incubation was terminated by rapid filtration through Whatman GF/B filters (pre-soaked in 0.1% PEI solution). The assay tubes and filters were washed five times with 1 ml of ice cold assay buffer. The filters were placed in poly-Q mini vials with approximately 5 ml of scintillation fluid. The vials are then shaken and left for at least 8 hours before being counted on a liquid scintillation counter. To determine the free ligand concentration 3 aliquots (20 μl) of the [^3H]-MK-801 working solution were also counted. Concentration response data for drugs was analysed using a 4 parameter equation fitted by non linear regression. This yielded the half maximally effective drug concentration (IC50) and Hill coefficient.

For data set [2], the system named is PCP site of the NMDA receptor (cerebellar). Put plainly: [3H]-MK-801 binding, PCP site of NMDA receptor, rat cerebellar membranes. To be noted: IC50 cortex / IC50 cerebellum.
Excerpt: as §1, §2

The target in data set [3] is T1, PCP site of the NMDA receptor (cerebellar).
T1 construct: IC50(μM) Cerebellum; other: rat cerebellum membranes, [3H]-MK-801 5 nM, 10 μM glutamate, 10 μM glycine
Described as above. To be noted: rat cerebellum membranes, [3H]-MK-801 5 nM, 10 μM glutamate, 10 μM glycine.
Excerpt: as §1, §2

16 molecules from patent publication US6500866B1, “1-(adamantyl)amidines and their use in the treatment of conditions generally associated with abnormalities in glutamatergic transmission” (Vernalis Research Limited, priority 1997, dated 2002) can be followed below.

SMILES strings stand for the structures. Where a name gives a salt, the structure may show the parent alone.

`C=CCNC(=N)C12CC3CC(C)(CC(C)(C3)C1)C2` (as salt: hydrochloride) [Example 6, N-Allyl-3,5-dimethyl-1-adamantanecarboximidamide hydrochloride] yielded a melting point of 222 to 224 °C.

As to `CC12CC3CC(C)(C1)CC(CCC(=N)N)(C3)C2` (as salt: hydrochloride) [Example 11, 3-(3,5-Dimethyl-1-adamantyl)propanimidamide hydrochloride], the melting point lay in the range of 246 to 248 °C.

As for `N=C(N)C12CC3CC(CC(Br)(C3)C1)C2` (as salt: hydrochloride) [Example 3, 3-Bromo-1-adamantanecarboximidamide hydrochloride], the melting point fell in the range of 221 to 223 °C.

`Cl.N=C(N)C12CC3CC(C1)CC(c1ccc([N+](=O)[O-])cc1)(C3)C2` [Example 14, 3-(4-Nitrophenyl)-1-adamantanecarboximidamide hydrochloride]: the IC50 worked out at 406 µM in data set [1] and 234 µM in data set [3]. For the same molecule, the “Ratio of cortical to cerebellar binding affinity” value (from here on “Ratio of cortical”) in data set [2] was found to be 1.7.

For `CN(C)CCNC(=N)C12CC3CC(CC(C3)C1)C2` (as salt: hydrochloride) [Example 10, N-(2-Dimethylaminoethyl)-1-adamantanecarboximidamide dihydrochloride], the melting point was 293 °C (dec.).

In the case of `CC12CC3(C)CC(C)(C1)CC(C(=N)N)(C2)C3.Cl` [Example 13, 3,5,7-Trimethyl-1-adamantanecarboximidamide hydrochloride], the IC50 in data set [1] worked out at 43 µM; in data set [3], 18 µM. The “Ratio of cortical” value in data set [2] is on record as 2.4.

As to `N=C(NCc1ccccc1)C12CC3CC(CC(C3)C1)C2` (as salt: hydrochloride) [Example 9, N-Benzyl-1-adamantanecarboximidamide hydrochloride], the melting point was in the range of 242 to 244 °C.

`N=C(N)C12CC3CC(CC(Cl)(C3)C1)C2` (as salt: hydrochloride) [Example 2, 3-Chloro-1-adamantanecarboximidamide hydrochloride] came in with a melting point of 215 to 216 °C.

`CC12CC3CC(C)(C1)CC(CC(=N)N)(C3)C2` (as salt: hydrochloride) [Example 5, 3,5-Dimethyl-1-adamantaneacetiniidamide hydrochloride]: the melting point was in the range of 252 to 253 °C.

Turning to `CCNC(=N)C12CC3CC(CC(C3)C1)C2` (as salt: hydrochloride) [Example 8, N-Ethyl-1-adamantanecarboximidainide hydrochloride], the melting point is 315 °C (dec.).

Molecule `N=C(N)CC(c1ccccc1)C12CC3CC(CC(C3)C1)C2` (centres unmarked) [Example 18, 3-(1-Adamantyl)-3-phenylpropanimidamide hydrochloride] registered an IC50 in data set [1] of 27 µM.

Take `CC12CC3CC(C1)CC(C(=N)N)(C3)C2.Cl` [Example 12, 3-Methyl-1-adamantanecarboximidamide hydrochloride]: the IC50 in data set [1] worked out at 96 µM; in data set [3], 36 µM. The “Ratio of cortical” value in data set [2] is 2.7.

In turn, `CCC12CC3CC(C1)CC(C(=N)N)(C3)C2` (as salt: hydrochloride) [Example 4, 3-Ethyl-1-adamantanecarboximidamide hydrochloride] returned a melting point of 210 to 212 °C.

In the case of `C=CCNC(=N)C12CC3CC(CC(C3)C1)C2` (as salt: hydrochloride) [Example 7, N-Allyl-1-adamantanecarboximidamide hydrochloride], the melting point lay in the range of 252 to 254 °C.

For the molecule `CC12CC3CC(C)(C1)CC(CC(=N)N)(C3)C2` [Example 5, 3,5-Dimethyl-1-adamantaneacetiniidamide hydrochloride], the IC50 was 82 µM in data set [1] and 56 µM in data set [3]. The “Ratio of cortical” value in data set [2] amounted to 1.5.

On to `Cl.N=C(N)C(Cc1ccccc1)C12CC3CC(CC(C3)C1)C2` (centres unmarked) [Example 16, 2-(1-Adamantyl)-3-phenylpropanimidamide hydrochloride], for which the IC50 in data set [1] stood at 52 µM; in data set [3] it was 27 µM. In data set [2], the “Ratio of cortical” value was 1.9.
